From the supplement of paper PMC10627819
Values after ≈ are worked out from the molar mass of the structure shown.

Tests used:
[1] = system: B. subtilis 168; experiment: fitness (endpoint OD595 vs no drug) (fraction); higher = more growth
Summary of the method: (§1)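 In 384-well plates at 37 °C, cultures began at OD595 0.01 in 30 µl, with 55 µl used for S. pneumoniae. OD595 readings every 30 min for 14 h were corrected by the first reading. Fitness divides the stationary-phase transition optical density by the robust mean of no-drug control wells. The result is capped at 1.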

[2] = system: S. aureus DSM 20231; experiment: as above
Summary of the method: as §1

[3] = system: S. pneumoniae D39V; experiment: as above
Summary of the method: as §1

[4] = system: B. subtilis 168
[5] = system: S. aureus Newman
[6] = system: S. aureus DSM 20231
[7] = system: S. pneumoniae D39V
[8] = system: S. aureus Newman; experiment: fitness (endpoint OD595 vs no drug) (fraction); higher = more growth
Summary of the method: as §1

CC(=O)Oc1ccccc1C(=O)O [Acetylsalicylic acid]
fitness
Settings | [1] | [2] | [3]
250 µg/mL | 0.948 | 0.991 | 0.967
500 µg/mL | 0.911 | 0.888 | 0.965
1000 µg/mL | 0.745 | 0.522 | 0.924

Settings | MIC [µg/mL]
[4] | 2000 (≈ 11100 µM)
[5] | 2000 (≈ 11100 µM)
[6] | 1000 (≈ 5550 µM)
[7] | 2000 (≈ 11100 µM)

N#CC(C#N)=NNc1cccc(Cl)c1 [CCCP]
[3]
Settings | fitness
0.575 µg/mL | 0.981
1.15 µg/mL | 0.968
2.3 µg/mL | 0.942

Settings | MIC [µg/mL]
[4] | 2.3 (≈ 11.2 µM)
[7] | 4.5 (≈ 22 µM)

CO/N=C(\C(=O)N[C@@H]1C(=O)N2C(C(=O)O)=C(COC(C)=O)CS[C@H]12)c1csc(N)n1 [Cefotaxime]
Settings | fitness
[1], 0.0625 µg/mL | 0.477
[1], 0.125 µg/mL | 0.338
[1], 0.25 µg/mL | 0.205
[1], 0.5 µg/mL | 0.113
[1], 1 µg/mL | 0.0654
[1], 2 µg/mL | 0.0508
[2], 0.039 µg/mL | 0.935
[2], 0.078 µg/mL | 0.869
[2], 0.155 µg/mL | 0.951
[2], 0.156 µg/mL | 0.844
[2], 0.31 µg/mL | 0.825
[2], 0.312 µg/mL | 0.676
[2], 0.62 µg/mL | 0.669
[3], 0.0018 µg/mL | ≥ 1
[3], 0.0035 µg/mL | 0.998
[3], 0.007 µg/mL | 0.83
[8], 0.039 µg/mL | 0.829
[8], 0.078 µg/mL | 0.786
[8], 0.156 µg/mL | 0.729
[8], 0.312 µg/mL | 0.462
[8], 0.625 µg/mL | 0.0743
[8], 1.25 µg/mL | 0.022
[8], 2.5 µg/mL | 0.021

Settings | MIC [µg/mL]
[5] | 2.5 (≈ 5.49 µM)
[6] | 0.173 (≈ 0.38 µM)
[7] | 0.008 (≈ 0.0176 µM)

CO/N=C(\C(=O)N[C@@H]1C(=O)N2C(C(=O)O)=C(COC(N)=O)CS[C@H]12)c1ccco1 [Cefuroxime]
[1]
Settings | fitness
0.195 µg/mL | 0.319
0.39 µg/mL | 0.26
0.78 µg/mL | 0.212
1.562 µg/mL | 0.332
3.125 µg/mL | 0.264
6.25 µg/mL | 0.227

Settings | MIC [µg/mL]
[4] | 2 (≈ 4.71 µM)
[5] | 0.25 (≈ 0.589 µM)
[6] | 0.25 (≈ 0.589 µM)
[7] | 0.25 (≈ 0.589 µM)

CN(C)[C@@H]1C(O)=C(C(N)=O)C(=O)[C@@]2(O)C(O)=C3C(=O)c4c(O)ccc(Cl)c4[C@@](C)(O)[C@H]3C[C@@H]12 [Chlortetracycline]
fitness
Settings | 0.012 µg/mL | 0.0238 µg/mL | 0.024 µg/mL | 0.0475 µg/mL | 0.048 µg/mL | 0.095 µg/mL | 0.19 µg/mL
[1] | – | – | – | 0.895 | – | 0.8 | 0.524
[2] | 0.793 | – | 0.441 | – | 0.073 | – | –
[3] | 0.857 | – | 0.703 | – | 0.526 | – | –
[8] | 0.683 | 0.237 | 0.402 | 0.0993 | 0.0667 | 0.0061 | –

Settings | MIC [µg/mL]
[4] | 0.4 (≈ 0.835 µM)
[5] | 0.095 (≈ 0.198 µM)
[6] | 0.15 (≈ 0.313 µM)
[7] | 1.5 (≈ 3.13 µM)

O=C(O)c1cn(C2CC2)c2cc(N3CCNCC3)c(F)cc2c1=O [Ciprofloxacin]
fitness
Settings | 0.0098 µg/mL | 0.0195 µg/mL | 0.0375 µg/mL | 0.039 µg/mL | 0.075 µg/mL | 0.078 µg/mL | 0.15 µg/mL | 0.156 µg/mL | 0.312 µg/mL
[1] | 0.871 | 0.777 | – | 0.135 | – | – | – | – | –
[2] | – | – | 1 | – | 0.978 | 0.899 | 0.77 | 0.754 | 0.456
[8] | – | – | 0.801 | – | 0.597 | 0.708 | 0.0387 | 0.267 | 0.0879

Settings | MIC [µg/mL]
[5] | 0.156 (≈ 0.471 µM)
[6] | 0.312 (≈ 0.942 µM)
[7] | 1 (≈ 3.02 µM)

COc1cccc2c1C(=O)c1c(O)c3c(c(O)c1C2=O)C[C@@](O)(C(=O)CO)C[C@@H]3O[C@H]1C[C@H](N)[C@H](O)[C@H](C)O1 [Doxorubicin]
fitness
Settings | 0.25 µg/mL | 0.5 µg/mL | 0.625 µg/mL | 1 µg/mL | 1.25 µg/mL | 2.5 µg/mL
[1] | – | – | 0.946 | – | 0.918 | 0.816
[2] | – | – | 0.967 | – | 0.907 | 0.827
[3] | 0.86 | 0.903 | – | 0.781 | – | –
[8] | – | – | 0.896 | – | 0.791 | 0.68

Settings | MIC [µg/mL]
[4] | 5 (≈ 9.2 µM)
[5] | 2.78 (≈ 5.11 µM)
[6] | 2.78 (≈ 5.11 µM)
[7] | 1.2 (≈ 2.21 µM)

C[C@H]1c2cccc(O)c2C(=O)C2=C(O)[C@]3(O)C(=O)C(C(N)=O)=C(O)[C@@H](N(C)C)[C@@H]3[C@@H](O)[C@@H]21 [Doxycycline]
fitness
Settings | 0.0155 µg/mL | 0.02 µg/mL | 0.031 µg/mL | 0.04 µg/mL | 0.062 µg/mL | 0.08 µg/mL
[1] | – | 0.876 | – | 0.754 | – | 0.457
[3] | 0.789 | – | 0.73 | – | 0.59 | –

Settings | MIC [µg/mL]
[4] | 0.08 (≈ 0.18 µM)
[6] | 0.034 (≈ 0.0765 µM)

C[C@@H]1O[C@@H]1P(=O)(O)O [Fosfomycin]
Settings | fitness
[1], 1.562 µg/mL | 0.712
[1], 3.124 µg/mL | 0.594
[1], 6.248 µg/mL | 0.422
[2], 0.781 µg/mL | 0.875
[2], 1.562 µg/mL | 0.693
[2], 3.124 µg/mL | 0.535
[3], 1.25 µg/mL | 0.966
[3], 2.5 µg/mL | 0.895
[3], 5 µg/mL | 0.716
[8], 0.781 µg/mL | 0.686
[8], 1.562 µg/mL | 0.485
[8], 3.124 µg/mL | 0.123

Settings | MIC [µg/mL]
[4] | 12.5 (≈ 90.5 µM)
[5] | 3.5 (≈ 25.4 µM)
[6] | 3.5 (≈ 25.4 µM)
[7] | 6.25 (≈ 45.3 µM)

Cc1ncc([N+](=O)[O-])n1CCO [Metronidazole]
fitness
Settings | 0.625 µg/mL | 0.781 µg/mL | 1.25 µg/mL | 1.562 µg/mL | 2.5 µg/mL | 3.124 µg/mL | 5 µg/mL
[1] | 0.955 | – | 0.946 | – | 0.94 | – | –
[2] | ≥ 1 | – | ≥ 1 | – | ≥ 1 | – | –
[3] | – | – | ≥ 1 | – | ≥ 1 | – | 0.997
[8] | ≥ 1 | ≥ 1 | ≥ 1 | ≥ 1 | ≥ 1 | 0.999 | –

Settings | MIC [µg/mL]
[4] | 5 (≈ 29.2 µM)
[5] | 3 (≈ 17.5 µM)
[6] | 3 (≈ 17.5 µM)
[7] | 10 (≈ 58.4 µM)
